Assay results: US8846933B2, “N-link hydroxamic acid derivatives useful as antibacterial agents” (Pfizer Inc., priority 2009, dated 2014)

What was measured:
Format in all cases: cell-based
[1] = system: Acinetobacter baumanii/haemolyticus: Multidrug-resistant clinical isolate (AB-3167); assay: MIC determination (CLSI), strain AB-3167; settings: unit assumed
Procedure: The in vitro antibacterial activity of compounds described in the Examples was evaluated by minimum inhibitory concentration (MIC) testing according to Clinical and Laboratory Standards Institute (CLSI, formerly NCCLS) guidelines. See: Clinical and Laboratory Standards Institute. Methods for Dilution Antimicrobial Susceptibility Tests for Bacteria that Grow Aerobically; Approved Standard-Seventh Edition. CLSI document M7-A7 [ISBN 1-56238-587-9]. Clinical and Laboratory Standards Institute, 940 West Valley Road, Suite 1400, Wayne, Pa. 19087-1898 USA, 2006; also Clinical and Laboratory Standards Institute. Performance Standards for Antimicrobial Susceptibility Testing; Eighteenth Informational Supplement. CLSI document M100-S18 [ISBN1-56238-653-0].Clinical and Laboratory Standards Institute.
The following bacterial strains were used in these MIC determinations:
2) Acinetobacter baumanii/haemolyticus: Multidrug-resistant clinical isolate labeled as AB-3167 in Tables 4 and 5;

[2] = system: Escherichia coli EC-1: VOGEL, mouse virulent; assay: MIC determination (CLSI), strain EC-1; settings: Escherichia coli EC-1, VOGEL, mouse virulent; unit assumed
Outline: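 The mouse-virulent VOGEL isolate of E. coli, EC-1, served as test organism. Minimum inhibitory concentration was measured by CLSI dilution methodology (M7-A7; M100-S18 standards).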

[3] = system: Pseudomonas aeruginosa UI-18: Wild-type (PA-7); assay: MIC determination (CLSI), strain PA-7; settings: Pseudomonas aeruginosa UI-18, wild-type; unit assumed
Outline: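 Strain tested was P. aeruginosa UI-18, a wild-type isolate labelled PA-7. Minimum inhibitory concentrations followed CLSI dilution methodology for aerobically growing bacteria (M7-A7, M100-S18).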

C[C@@](CCn1ccc(-c2ccc(Cl)cc2)cc1=O)(C(=O)NO)S(C)(=O)=O [Example 15, (2R)-4-[4-(4-chlorophenyl)-2-oxopyridin-1(2H)-yl]-N-hydroxy-2-methyl-2-(methylsulfonyl)butanamide]
AB-3167 (MIC) [1]: > 64 µg/mL | EC-1 (MIC) [2]: 0.5 µg/mL | PA-7 (MIC) [3]: 0.5 µg/mL

Cc1ccc(-c2ccn(CC[C@](C)(C(=O)NO)S(C)(=O)=O)c(=O)c2)cc1 [Example 16, (2R)-N-hydroxy-2-methyl-4-[4-(4-methylphenyl)-2-oxopyridin-1(2H)-yl]-2-(methylsulfonyl)butanamide]
AB-3167 (MIC) [1]: > 64 µg/mL | EC-1 (MIC) [2]: 0.5 µg/mL | PA-7 (MIC) [3]: 0.5 µg/mL

COc1ccc(-c2ccn(CC[C@](C)(C(=O)NO)S(C)(=O)=O)c(=O)c2)cc1 [Example 17, (2R)-N-hydroxy-4-[4-(4-methoxyphenyl)-2-oxopyridin-1(2H)-yl]-2-methyl-2-(methylsulfonyl)butanamide]
AB-3167 (MIC) [1]: > 64 µg/mL | EC-1 (MIC) [2]: 0.5 µg/mL | PA-7 (MIC) [3]: 0.5 µg/mL

C[C@@](CCn1ccc(-c2ccc3c(c2)OCCO3)cc1=O)(C(=O)NO)S(C)(=O)=O [Example 18, (2R)-4-[4-(2,3-dihydro-1,4-benzodioxin-6-yl)-2-oxopyridin-1(2H)-yl]-N-hydroxy-2-methyl-2-(methylsulfonyl)butanamide]
AB-3167 (MIC) [1]: > 64 µg/mL | EC-1 (MIC) [2]: > 64 µg/mL | PA-7 (MIC) [3]: 1 µg/mL

Cc1cc2cc(-c3ccn(CC[C@](C)(C(=O)NO)S(C)(=O)=O)c(=O)c3)ccc2[nH]1 [Example 19, (2R)-N-hydroxy-2-methyl-4-[4-(2-methyl-1H-indol-5-yl)-2-oxopyridin-1(2H)-yl]-2-(methylsulfonyl)butanamide]
AB-3167 (MIC) [1]: > 64 µg/mL | EC-1 (MIC) [2]: 1 µg/mL | PA-7 (MIC) [3]: 2 µg/mL

C[C@@](CCn1ccc(-c2ccc(Cl)cc2F)cc1=O)(C(=O)NO)S(C)(=O)=O [Example 20, (2R)-4-[4-(4-chloro-2-fluorophenyl)-2-oxopyridin-1(2H)-yl]-N-hydroxy-2-methyl-2-(methylsulfonyl)butanamide]
AB-3167 (MIC) [1]: > 64 µg/mL | EC-1 (MIC) [2]: 0.25 µg/mL | PA-7 (MIC) [3]: 0.25 µg/mL

COc1ccc(-c2ccn(CC[C@](C)(C(=O)NO)S(C)(=O)=O)c(=O)c2)c(F)c1 [Example 21, (2R)-4-[4-(2-fluoro-4-methoxyphenyl)-2-oxopyridin-1(2H)-yl]-N-hydroxy-2-methyl-2-(methylsulfonyl)butanamide]
AB-3167 (MIC) [1]: 32 µg/mL | EC-1 (MIC) [2]: 0.125 µg/mL | PA-7 (MIC) [3]: 0.25 µg/mL

C[C@@](CCn1ccc(-c2c(F)ccc(F)c2F)cc1=O)(C(=O)NO)S(C)(=O)=O [Example 22, (2R)-N-hydroxy-2-methyl-2-(methylsulfonyl)-4-[2-oxo-4-(2,3,6-trifluorophenyl)pyridin-1(2H)-yl]butanamide]
AB-3167 (MIC) [1]: > 64 µg/mL | EC-1 (MIC) [2]: 2 µg/mL | PA-7 (MIC) [3]: 4 µg/mL

Cc1nccc(-c2ccc(-c3ccn(CC[C@](C)(C(=O)NO)S(C)(=O)=O)c(=O)c3)cc2)n1 [Example 23, (2R)-N-hydroxy-2-methyl-4-{4-[4-(2-methylpyrimidin-4-yl)phenyl]-2-oxopyridin-1(2H)-yl}-2-(methylsulfonyl)butanamide]
AB-3167 (MIC) [1]: > 64 µg/mL | EC-1 (MIC) [2]: 2 µg/mL | PA-7 (MIC) [3]: 2 µg/mL

Cn1nccc1-c1ccc(-c2ccn(CC[C@](C)(C(=O)NO)S(C)(=O)=O)c(=O)c2)cc1 [Example 24, (2R)-N-hydroxy-2-methyl-4-{4-[4-(1-methyl-1H-pyrazol-5-yl)phenyl]-2-oxopyridin-1(2H)-yl}-2-(methylsulfonyl)butanamide]
AB-3167 (MIC) [1]: > 64 µg/mL | EC-1 (MIC) [2]: 1 µg/mL | PA-7 (MIC) [3]: 2 µg/mL

Cc1nc(-c2ccc(-c3ccn(CC[C@](C)(C(=O)NO)S(C)(=O)=O)c(=O)c3)cc2)co1 [Example 25, (2R)-N-hydroxy-2-methyl-4-{4-[4-(2-methyl-1,3-oxazol-4-yl)phenyl]-2-oxopyridin-1(2H)-yl}-2-(methylsulfonyl)butanamide]
AB-3167 (MIC) [1]: > 64 µg/mL | EC-1 (MIC) [2]: 1 µg/mL | PA-7 (MIC) [3]: 2 µg/mL

Cc1ncc(-c2ccc(-c3ccn(CC[C@](C)(C(=O)NO)S(C)(=O)=O)c(=O)c3)cc2)cn1 [Example 27, (2R)-N-hydroxy-2-methyl-4-{4-[4-(2-methylpyrimidin-5-yl)phenyl]-2-oxopyridin-1(2H)-yl}-2-(methylsulfonyl)butanamide]
AB-3167 (MIC) [1]: > 64 µg/mL | EC-1 (MIC) [2]: 16 µg/mL | PA-7 (MIC) [3]: 4 µg/mL

C[C@@](CCn1ccc(-c2ccc(OC(F)F)cc2F)cc1=O)(C(=O)NO)S(C)(=O)=O [Example 28, (2R)-4-{4-[4-(difluoromethoxy)-2-fluorophenyl]-2-oxopyridin-1(2H)-yl}-N-hydroxy-2-methyl-2-(methylsulfonyl)butanamide]
AB-3167 (MIC) [1]: > 64 µg/mL | EC-1 (MIC) [2]: 0.25 µg/mL | PA-7 (MIC) [3]: 0.5 µg/mL

CC(CCn1ccc(-c2ccc(Oc3ccccn3)cc2)cc1=O)(C(=O)NO)S(C)(=O)=O (stereo not drawn) [Example 29, N-Hydroxy-2-methyl-2-(methylsulfonyl)-4-{2-oxo-4-[4-(pyridin-2-yloxy)phenyl]pyridin-1(2H)-yl}butanamide]
AB-3167 (MIC) [1]: > 64 µg/mL | EC-1 (MIC) [2]: 0.5 µg/mL | PA-7 (MIC) [3]: 4 µg/mL

CC(CCn1ccc(-c2ccc(OCCCO)cc2)cc1=O)(C(=O)NO)S(C)(=O)=O (stereo not drawn) [Example 30, N-hydroxy-4-{4-[4-(3-hydroxypropoxy)phenyl]-2-oxopyridin-1(2H)-yl}-2-methyl-2-(methylsulfonyl)butanamide]
AB-3167 (MIC) [1]: > 64 µg/mL | EC-1 (MIC) [2]: 2 µg/mL | PA-7 (MIC) [3]: 4 µg/mL

CC(CCn1ccc(-c2ccc(CCCO)cc2)cc1=O)(C(=O)NO)S(C)(=O)=O (stereo not drawn) [Example 31, N-Hydroxy-4-{4-[4-(3-hydroxypropyl)phenyl]-2-oxopyridin-1(2H)-yl}-2-methyl-2-(methylsulfonyl)butanamide]
AB-3167 (MIC) [1]: > 64 µg/mL | EC-1 (MIC) [2]: 8 µg/mL | PA-7 (MIC) [3]: 4 µg/mL

C[C@@](CCn1ccc(-c2ccc(OCCC3CC(O)C3)cc2)cc1=O)(C(=O)NO)S(C)(=O)=O (stereo partly drawn) [Example 32, (2R)-N-hydroxy-4-[4-{4-[2-(3-hydroxycyclobutyl)ethoxy]phenyl}-2-oxopyridin-1(2H)-yl]-2-methyl-2-(methylsulfonyl)butanamide]
AB-3167 (MIC) [1]: > 64 µg/mL | EC-1 (MIC) [2]: 0.25 µg/mL | PA-7 (MIC) [3]: 1 µg/mL

CC(CCn1ccc(-c2ccc3cccnc3c2)cc1=O)(C(=O)NO)S(C)(=O)=O (stereo not drawn) [Example 36, N-hydroxy-2-methyl-2-(methylsulfonyl)-4-(2-oxo-4-quinolin-7-ylpyridin-1(2H)-yl)butanamide]
AB-3167 (MIC) [1]: > 64 µg/mL | EC-1 (MIC) [2]: 4 µg/mL | PA-7 (MIC) [3]: 8 µg/mL

CC(CCn1ccc(-c2ccc(OCCc3ccncc3)cc2)cc1=O)(C(=O)NO)S(C)(=O)=O (stereo not drawn) [Example 37, N-hydroxy-2-methyl-2-(methylsulfonyl)-4-{2-oxo-4-[4-(2-pyridin-4-ylethoxy)phenyl]pyridin-1(2H)-yl}butanamide]
AB-3167 (MIC) [1]: > 64 µg/mL | EC-1 (MIC) [2]: 0.5 µg/mL | PA-7 (MIC) [3]: 4 µg/mL

Cc1cnc(-c2ccc(-c3ccn(CC[C@](C)(C(=O)NO)S(C)(=O)=O)c(=O)c3)cc2)o1 [Example 38, (2R)-N-hydroxy-2-methyl-4-{4-[4-(5-methyl-1,3-oxazol-2-yl)phenyl]-2-oxopyridin-1(2H)-yl}-2-(methylsulfonyl)butanamide]
AB-3167 (MIC) [1]: > 64 µg/mL | EC-1 (MIC) [2]: 0.06 µg/mL | PA-7 (MIC) [3]: 0.5 µg/mL

C[C@@](CCn1ccc(-c2ccc(-c3ncccn3)cc2)cc1=O)(C(=O)NO)S(C)(=O)=O [Example 39, (2R)-N-hydroxy-2-methyl-2-(methylsulfonyl)-4-[2-oxo-4-(4-pyrimidin-2-ylphenyl)pyridin-1(2H)-yl]butanamide]
AB-3167 (MIC) [1]: > 64 µg/mL | EC-1 (MIC) [2]: 0.5 µg/mL | PA-7 (MIC) [3]: 2 µg/mL

C[C@@](CCn1ccc(-c2ccc(-n3nccn3)cc2)cc1=O)(C(=O)NO)S(C)(=O)=O [Example 40, (2R)-N-hydroxy-2-methyl-2-(methylsulfonyl)-4-{2-oxo-4-[4-(2H-1,2,3-triazol-2-yl)phenyl]pyridin-1(2H)-yl}butanamide]
AB-3167 (MIC) [1]: > 64 µg/mL | EC-1 (MIC) [2]: 0.03 µg/mL | PA-7 (MIC) [3]: 0.25 µg/mL

C[C@@](CCn1ccc(-c2ccc(F)cc2)cc1=O)(C(=O)NO)S(C)(=O)=O [Example 41, (2R)-4-[4-(4-fluorophenyl)-2-oxopyridin-1(2H)-yl]-N-hydroxy-2-methyl-2-(methylsulfonyl)butanamide]
AB-3167 (MIC) [1]: > 64 µg/mL | EC-1 (MIC) [2]: 1 µg/mL | PA-7 (MIC) [3]: 0.5 µg/mL

C[C@@](CCn1ccc(-c2cccc(F)c2)cc1=O)(C(=O)NO)S(C)(=O)=O [Example 42, (2R)-4-[4-(3-fluorophenyl)-2-oxopyridin-1(2H)-yl]-N-hydroxy-2-methyl-2-(methylsulfonyl)butanamide]
AB-3167 (MIC) [1]: > 64 µg/mL | EC-1 (MIC) [2]: 2 µg/mL | PA-7 (MIC) [3]: 1 µg/mL

C[C@@](CCn1ccc(-c2ccccc2F)cc1=O)(C(=O)NO)S(C)(=O)=O [Example 43, (2R)-4-[4-(2-fluorophenyl)-2-oxopyridin-1(2H)-yl]-N-hydroxy-2-methyl-2-(methylsulfonyl)butanamide]
AB-3167 (MIC) [1]: > 64 µg/mL | EC-1 (MIC) [2]: 1 µg/mL | PA-7 (MIC) [3]: 0.5 µg/mL

COc1ccc(-c2ccn(CC[C@](C)(C(=O)NO)S(C)(=O)=O)c(=O)c2)c(F)c1F [Example 44, (2R)-4-[4-(2,3-difluoro-4-methoxyphenyl)-2-oxopyridin-1(2H)-yl]-N-hydroxy-2-methyl-2-(methylsulfonyl)butanamide]
AB-3167 (MIC) [1]: > 64 µg/mL | EC-1 (MIC) [2]: 0.015 µg/mL | PA-7 (MIC) [3]: 1 µg/mL
